Experiments:
[1] = test system: blood flow in the optic nerve head; assay: Blood flow in the optic nerve head by laser speckle technique (rate of change of NB value); assay type: in vivo; details: rabbit, i.v.
Description: The optic nerve head circulation improving activity was measured by using as an index the rate of change of NB value as mentioned hereinafter.
1) Measurement of Blood Flow in the Optic Nerve Head by Laser Speckle Technique
(§1) Male New Zealand White rabbits (weighing 2.3-3.1 kg) were housed in an OSHIDA-type solid box and the left auricula was locally anesthetized with Xylocaine Spray (trademark, manufactured by Fujisawa Pharmaceutical) and Xylocaine Jelly (trademark, manufactured by Fujisawa Pharmaceutical), and a catheter (Polyethylene Tube SP28, manufactured by Natsume) were inserted into the post auricular artery for measuring the blood pressure and the heart rate, and the blood pressure and the heart rate were continuously recorded with a recorder (WT-645G, manufactured by Nihon-Koden). Under the local anesthesia, a catheter for administering the test drug (Polyethylene Tube SP31, manufactured by Natsume) was likewise inserted into the right post auricular vein of the animal.
The blood flow of the optic nerve head was measured by selecting a portion having no surface blood vessel at the right optic nerve head [0.42×0.42 mm (field angle 30°) with an eyegrounds circulation analyzer (Laser speckle circulation analyzer-II: LSCA-II), measuring the mean value of the quantitative index of blurring in whole field (100×100) [NB value (normalized blur value)], and calculating the rate of change (%) of the NB value by the following equation: [formula]
By the way, the test drug was prepared by adding a 20% dimethylacetamide solution containing 2% tartaric acid to a drug to be tested so as to adjust the ad ministration volume thereof to 0.1 ml/kg and dissolving the mixture by adding thereto a hot water.
The change of the value between the data after administration of drug or vehicle and the data before the administration of drug or vehicle was determined, and for each item, the mean values and standard deviation in six animals in each test were determined, and the results are shown in the accompanying FIG. 1 to FIG. 8. […]

intraocular pressure = assay: Measurement of intraocular pressure in rabbits (pneumatonometer); assay type: in vivo; details: rabbit; 0.003, 0.01 and 0.03 mg/kg, i.v.
Description: 2) Measurement of Intraocular Pressure The intraocular pressure was measured on the left eye at each time when the above NB values were measured after the administration of drug or vehicle (excepting 5 minutes after administration, the intraocular pressure was not measured) after dropping a 0.4% solution of Benoxil (trademark, manufactured by Santen Pharmaceutical) by using a calibrated pneumatonometer (Alcon Application Pneumatonograph, manufactured by Nippon Alcon). The change of the value between the data after administration of drug or vehicle and the data before the administration of drug or vehicle was determined, and for each item, the mean values and standard deviation in six animals in each test were determined, and the results are shown in the accompanying FIG. 1 to FIG. 8. The significant test of the test drug was done by t-test at each time of measurement compared to the data in the control group administered with vehicle. The significant standards are indicated separately in the group of less than 5% and the group of less than 1%.

[2] = test system: blood pressure and heart rate; assay: Mean blood pressure and heart rate in rabbits (post auricular artery catheter); assay type: in vivo; details: rabbit
From the text: as §1
The change of the value between the data after administration of drug or vehicle and the data before the administration of drug or vehicle was determined, and for each item, the mean values and standard deviation in six animals in each test were determined, and the results are shown in the accompanying FIG. 1 to FIG. 8. The significant test of the test drug was done by t-test at each time of measurement compared to the data in the control group administered with vehicle. The significant standards are indicated separately in the group of less than 5% and the group of less than 1%.

[3] = test system: blood flow in the optic nerve head; details: literature: Nichi-Gan Kaishi Vol. 100, No. 12, p. 923, 1996; cited from earlier work
[4] = Measurement of plasma concentration of drug in rabbit (gas chromatography); assay type: in vivo; details: Lomerizine hydrochloride 0.03 mg/kg, i.v.
Description: Under the same conditions as in the above Example 1, the plasma concentration of Lomerizine in the groups administered with Lomerizine hydrochloride (0.03 mg/kg, i.v.) 5, 15, 30 and 60 minutes after the administration of the drug as follows.
Male New Zealand White rabbits (weighing 2.5-3.5 kg, 3 animals per group) were placed in an OSHIDA-type solid box. A solution of Lomerizine hydrochloride (in an amount so as to be 0.03 mg/kg) in a 20% dimethylacetamide containing 2% tartaric acid was prepared and was administered to the right post auricular vein of the animals. Thereafter, blood sampling was done from left post auricular vein 5, 15, 30 and 60 minutes after the administration of test drug. The collected blood sample was centrifuged (4° C., 3000 rpm×10 minutes) to obtain a plasma sample, and then the amount of Lomerizine in the plasma was measured by gas chromatography.
The gas chromatography was carried out under the following conditions:
GC-14B type gas chromatograph (manufactured by Shimadzu Corporation)
FTD Detector (Shimadzu FTD-8, manufactured by Shimadzu Corporation)
Conditions for Measurement:
Column: Shimadzu CBP1-M25-025 (25m×0.2mm, thickness of membrane: 0.25 μm)
Injection port temperature: 310° C.
Column temperature: 285° C.
Detector temperature: 310° C.
Carrier gas: Helium (2.30 kg/m^2)
Make up gas: Helium (flow rate: 40 ml/minute)
H2 flow rate: 3.8 ml/minute
Air flow rate: 160 ml/minute

[5] = test system: side effects (objective and subjective symptoms); assay: Side effect-manifestation in aged and younger persons; assay type: in vivo; details: human
[6] = 0.03 mg/kg, i.v., 15 minutes after the administration

Compound | increasing activity of blood flow in the optic nerve head (rate of change of NB value) vs vehicle ([1]; 0.03 mg/kg, 30 minutes after the administration) | increasing activity of blood flow in the optic nerve head (rate of change of NB value) vs vehicle ([1]; 0.003, 0.01 and 0.03 mg/kg, significant 5 minutes after the administration) | increasing activity of blood flow in the optic nerve head (rate of change of NB value) vs vehicle ([1]; 0.003 and 0.03 mg/kg, 15 minutes after the administration) | action on the intraocular pressure (intraocular pressure) | heart rate vs vehicle [2, 6] | hypotensive activity (mean blood pressure) vs vehicle [2, 6] | hypotensive activity (mean blood pressure) vs vehicle ([2]; 0.01 and 0.03 mg/kg, i.v., 5 minutes after the administration) | heart rate vs vehicle ([2]; 0.01 and 0.03 mg/kg, i.v., 30 minutes after the administration) | heart rate vs vehicle ([2]; all groups (0.003, 0.01 and 0.03 mg/kg, i.v.), 5 minutes after the administration) | action on the optic nerve head (blood flow) [3] | Concentration of Lomerizine in Plasma, Mean ± Standard deviation ([4]; 5 minutes after administration) [ng/mL] | Concentration of Lomerizine in Plasma, Mean ± Standard deviation ([4]; 15 minutes after administration) [ng/mL] | Concentration of Lomerizine in Plasma, Mean ± Standard deviation ([4]; 30 minutes after administration) [ng/mL] | side effect-manifestation in aged persons (65-85 years old) compared with younger persons (15-64 years old) [5]
COC(=O)C1=C(C#N)NC(C)=C(C(=O)OC(C)C)C1c1cccc([N+](=O)[O-])c1 (centres unmarked) [Nilvadipine] | significant increasing activity | higher increasing activity | significant increasing activity | no clear action | significant increase | significant hypotensive activity | significant hypotensive activity | significant increase | significant increase | an activity of increasing blood flow | – | – | – | –
Lomerizine | – | – | – | – | – | – | – | – | – | – | 19.8 ± 6.5 | 8.1 ± 2.4 | 4.9 ± 2.4 | not so different

Source: patent US6387910B1, “Drug of improving optic nerve head circulation disorder” (Akzo Nobel N.V., priority 1998, dated 2002)
